Measured values from article PMC4979471 (Cell Death Discovery, 2015).
“Also recorded” adds a separate entry of the source. Read-outs that look alike come from different tables or passages of the source. One block for each compound: values may come before it.

Tests used:
[1] = target: T1, recombinant human IDO (Homo sapiens, UniProt P14902); test: IDO enzymatic assay; format: biochemical; conditions: in vitro enzymatic assay
T1 construct: purchased R&D Systems (Minneapolis, MN, USA)
Description: IDO activity was determined as described by Takahashi et al.[25] using recombinant human IDO purchased from R&D Systems (Minneapolis, MN, USA). The yellow pigment derived from kynurenine was measured at 490 nm using the Spectramax microplate reader (Molecular Devices).

[2] = tested on: C57BL/6 mice; test: TNF+zVAD-induced shock model (temperature loss); format: in vivo, mouse; conditions: 15 min before TNF+zVAD
Description: Temperature was monitored over the course of 3 h by rectal probe.

[3] = target: T2, RIP1 kinase (Homo sapiens, UniProt Q13546); test: ADP-Glo kinase assay; format: biochemical
T2 construct: 10 nM GST-RIPK1 (1–375) and 50 μM ATP; made in house
Description: Compound potency against RIP1 kinase activity was determined using an ADP-Glo luminescence assay, which measures the conversion of ATP to ADP as previously described.[18] In brief, the primary reaction consisted of 10 nM GST-RIPK1 (1–375) and 50 μM ATP in 50 mM HEPES pH 7.5, 50 mM NaCl, 30 mM MgCl2, 1 mM DTT, 0.5 mg/ml BSA, and 0.02% CHAPS. Five microliter of enzyme and 5 μl of ATP were added to the plate at twice the final assay concentration and incubated at room temperature for 4 h. The luminescence was measured on a plate reader. Test compound inhibition was expressed as percent inhibition of internal assay controls.

[4] = target: T3, RIP1 (ATP-binding pocket) (Homo sapiens, UniProt Q13546); test: Fluorescent polarization (FP) binding assay
T3 construct: GST-RipK1 (1–375) was purified; made in house
T3 sequence (Q13546 1-375): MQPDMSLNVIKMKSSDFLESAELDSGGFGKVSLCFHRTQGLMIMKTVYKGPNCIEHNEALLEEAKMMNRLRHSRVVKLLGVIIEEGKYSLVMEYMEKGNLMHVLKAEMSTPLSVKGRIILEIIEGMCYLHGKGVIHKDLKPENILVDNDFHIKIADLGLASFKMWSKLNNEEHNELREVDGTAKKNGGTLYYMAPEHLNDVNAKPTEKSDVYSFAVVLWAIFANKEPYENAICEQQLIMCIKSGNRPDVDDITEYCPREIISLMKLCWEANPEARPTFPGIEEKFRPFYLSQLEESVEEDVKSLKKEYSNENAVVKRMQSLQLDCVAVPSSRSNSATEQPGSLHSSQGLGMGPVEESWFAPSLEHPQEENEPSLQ
Description: A FP-based binding assay was developed to quantitate interaction of novel test compounds at the ATP-binding pocket of RIP1, by competition with a fluorescently labeled ATP-competitive ligand, as previously described.[18] In brief, GST-RipK1 (1–375) was purified and was used at a final assay concentration of 10 nM.

[5] = tested on: indoleamine-2,3-dioxygenase (IDO); conditions: cited from earlier work
[6] = cited from earlier work
[7] = Pharmacokinetic profile after i.p. administration; format: in vivo, C57BL/6 mice; conditions: 10 mg/kg i.p., mice
Description: Briefly, pharmacokinetic studies were conducted using n=3 animals per group for each compound. […] Blood samples were obtained at various time points following intraperitoneal injection and diluted 1 : 1 with water prior to storage at −80 °C.
Prior to bioanalysis, samples were thawed and each analyte was isolated using a method based on protein precipitation. The resulting supernatant was injected into an LC/MS/MS system optimized for detection of the compound of interest. Data were reported as quantitative drug concentrations as determined by standard calibration curve analysis. Using these optimized conditions, the typical lower limit of quantitation achieved was 1.00 ng/ml for both compounds.

[8] = tested on: human monocytic U937 cells; test: TNF+zVAD-induced necroptosis, CellTiter-Glo; format: cell-based; conditions: U-937, U937, overnight, read-out: IC50 blocking necroptosis
Description: (§1) Mouse fibrosarcoma L929 cells (ATCC# CCL-1) and human monocytic U937 cells (ATCC# CRL-1593.2) were cultured in RPMI media supplemented with 10% heat-inactivated FBS, 100 U/ml penicillin and […] streptomycin. BMDM were prepared from C57BL/6 mice by differentiation with 10 ng/ml M-CSF (R&D Systems) for 7 days and cultured in DMEM medium supplemented with 10% heat-inactivated FBS, 100 U/ml penicillin, 100 μg/ml streptomycin and 0.25 μg/ml amphotericin. Primary human neutrophils were isolated from human blood following the standard method comprised of sequential sedimentation in dextran, density centrifugation in Ficoll–Hypaque and lysis of contaminating red blood cells.
(§2) […] To evaluate the effect of RIP1 inhibitors, cells were pretreated with compound (dose–response) for 30 min. Induced cell death was evaluated 19–21 h later by measuring cellular ATP levels using CellTiter-Glo Luminescent Cell Viability assay (Promega, Fitchburg, WI, USA). To induce necroptosis in neutrophils, freshly isolated human neutrophils were stimulated with TNF (10 ng/ml), QVD-Oph (50 μM) and SMAC mimetic (100 nM). Induced cell death was evaluated as above.

[9] = tested on: mouse fibrosarcoma L929 cells; test: TNF+zVAD-induced necroptosis, CellTiter-Glo; format: cell-based; conditions: overnight, read-out: IC50 blocking necroptosis
Description: as §1, §2

T1 sequence (P14902 whole entry): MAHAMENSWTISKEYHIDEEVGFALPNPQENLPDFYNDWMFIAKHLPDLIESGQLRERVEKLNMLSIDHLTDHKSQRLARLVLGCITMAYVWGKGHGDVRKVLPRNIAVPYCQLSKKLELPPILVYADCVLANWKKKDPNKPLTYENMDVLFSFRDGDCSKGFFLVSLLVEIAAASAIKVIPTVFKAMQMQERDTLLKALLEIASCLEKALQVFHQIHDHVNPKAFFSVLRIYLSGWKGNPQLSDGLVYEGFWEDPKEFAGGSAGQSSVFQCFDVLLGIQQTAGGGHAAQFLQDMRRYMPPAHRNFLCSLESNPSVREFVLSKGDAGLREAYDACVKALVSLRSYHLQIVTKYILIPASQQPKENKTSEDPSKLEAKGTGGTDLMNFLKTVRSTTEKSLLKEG

SMILES: CC1=CC(=O)c2ccccc2C1=O [menadione, reference compound]
- effect on IDO activity [1]: inhibited enzyme activity with the expected potency

- activity in blocking RIP1 kinase activity [3]: inactive
- activity in the FP binding assay [4]: no activity
SMILES: CC(C)(C)C(=O)N1N=CC[C@@H]1c1ccccc1 [GSK′962]
- protection from TNF+zVAD-induced temperature loss ([2]; 20 mg/kg i.p.): no effect

SMILES: CN1C(=O)NC(Cc2c[nH]c3c(Cl)cccc23)C1=O (stereo not shown) [Nec-1s, 7-Cl-O-Nec-1]
- IDO activity ([5]; ref 24): lacks IDO activity
- pharmacokinetic properties ([6]; ref 24): improved pharmacokinetic properties

- exposure compared with GSK′963 [7]: ~ 10 fold
- effect on IDO activity [1]: no effect
- IC50 ([3]; read-out: IC50 blocking RIP1 kinase activity): 1 µM
- IC50 [4]: 2 µM
- drop off in potency relative to GSK′963 in the FP binding assay [4]: ~ 70 fold
SMILES: CN1C(=O)C(Cc2c[nH]c3ccccc23)NC1=S (stereo not shown) [Nec-1, Necrostatin-1, reference compound]
- protection from TNF+zVAD-induced temperature loss ([2]; 0.2 mg/kg i.p.): no effect
- protection from TNF+zVAD-induced temperature loss ([2]; 2 mg/kg i.p.): minimal level of protection; also recorded: no significant protection
- IDO inhibition ([5]; ref 22): known to inhibit
- IDO inhibition ([5]; ref 25): potent inhibitor
- IC50 [8]: 2 µM
- IC50 [9]: 1 µM
- in vivo half-life ([6]; ref 23): short
- metabolic stability ([6]; ref 23): quite limited
